This is an account of results in patent publication US7943641B2, “7-((1H-imidazol-4-yl)methyl)-5,6,7,8-tetrahydroquinoline” (Allergan, Inc., priority 2006, dated 2011).

A word on the EC50: it is the concentration giving half of the maximal effect.

Assay [1] concerns IOP in the hypertensive eye. Briefly: Telemetry IOP model (telemetrized primate model). Type of assay: in vivo, Cynomolgus monkeys (macaca fascicularis). The protocol: Cynomolgus (macaca fascicularis) monkeys weighing 3-5 kg with unilateral ocular hypertension in the right eye (OD) are used. Sustained elevated IOP is created by circumferential argon laser photocoagulation (Zeiss Visulas 532) of the mid-trabecular meshwork according to the method of Gaasterland and Kupfer (5). IOPs are assessed at T=−0.1, 0, 1, 2, 4, and 6, hours with an optional reading at 24 hours using an applanation pneumatonometer (Model 30 Classic, mentor Co). A drop of proparacaine (Allergan, Inc.) is instilled into the eyes just prior to IOP measurements. Monkeys are chaired and conditioned for tonometry for months before initiation of the study. Results are averaged from the 2 hr to the 6 hr time points (averages for each animal are calculated and the group mean determined) in an effort to simplify and standardize the data and include a comparison of sustained responses. Depending on the design of the study, either a paired or unpaired Student's t test is done. P<0.05 is considered significant.
Telemetry IOP model. Cynomolgus monkeys (3-5 kg) are made unilaterally ocular hypertensive by argon laser as noted above. The telemetry implant procedure is performed following elevation of IOP. Briefly, the scalp is prepared for aseptic surgery, followed by a 4 cm incision and tissue blunt-dissection to form a pocket in the underlying fascia to contain the pressure transducer. The catheter from the transducer is then guided subcutaneously to the orbit, and inserted into the vitreous cavity of the glaucoma eye through a small opening in the pars plana which is sutured closed and fixed with tissue adhesive. Receivers are placed into the animal cages and connected to a computer running Dataquest software for data capture. Animals are housed in a 12 hours light, 12 hours dark cycle: 6:00 AM ON, 6:00 PM OFF. Animals are used in drug studies following recovery from the surgical procedure which takes 2 weeks to 1 month. Dosing is done by transferring animals to restraining chairs. Animals are dosed without the aid of a sedative. […]

The target in a further assay is T1, α2A adrenergic receptor (Homo sapiens, UniProt P08913).
T1 construct: expressed in transfected cells; host or cells: NIH-3T3 cells
T1 sequence (P08913 1-465): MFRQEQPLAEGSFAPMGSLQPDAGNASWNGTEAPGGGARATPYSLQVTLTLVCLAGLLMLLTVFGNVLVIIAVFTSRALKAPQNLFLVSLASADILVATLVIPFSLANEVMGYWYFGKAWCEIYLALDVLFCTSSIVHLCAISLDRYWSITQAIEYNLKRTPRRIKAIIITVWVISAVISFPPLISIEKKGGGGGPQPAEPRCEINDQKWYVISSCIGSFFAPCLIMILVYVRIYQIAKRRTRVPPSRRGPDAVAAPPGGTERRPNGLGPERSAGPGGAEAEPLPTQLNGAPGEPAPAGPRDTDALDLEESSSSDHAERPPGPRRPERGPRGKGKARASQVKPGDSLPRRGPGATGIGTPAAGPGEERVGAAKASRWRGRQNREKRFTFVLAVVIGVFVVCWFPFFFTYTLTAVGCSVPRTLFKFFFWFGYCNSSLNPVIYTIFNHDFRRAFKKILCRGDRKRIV
Briefly: RSAT (Receptor Selection and Amplification Technology) assay, α2A. The settings on record: NIH-3T3 cells cotransfected with receptor and G protein. The format is cell-based. The protocol: Incubations continue 72-96 hr at 37° C.

Structures can show the parent of a compound that is named as a salt.

`c1cnc2c(c1)CCC(Cc1c[nH]cn1)C2` (racemic) [racemic mixture, 7-(1H-Imidazol-4-ylmethyl)-5,6,7,8-tetrahydro-quinoline dihydrochloride]: the “% IOP decrease from baseline in the hypertensive eye” value (“% IOP decrease from baseline” for short) in assay [1] (dose 0.30%) is listed as 30%. Further, the EC50 on α2A adrenergic receptor amounted to 3.9 nM.
Take `c1cnc2c(c1)CCC(Cc1c[nH]cn1)C2` (single isomer, unassigned; (-)) [(−) enantiomer, (−) 7-((1H-imidazol-4-yl)methyl)-5,6,7,8-tetrahydroquinoline]: the “% IOP decrease from baseline” value in assay [1] (dose 0.30%) is 0%. Further, at α2A adrenergic receptor, the EC50 is 58.4 nM.
In the case of `c1cnc2c(c1)CCC(Cc1c[nH]cn1)C2` (single isomer, unassigned; (+)) [(+) enantiomer, (+)-7-(1H-imidazol-4-ylmethyl)-5,6,7,8-tetrahydro-quinoline dihydrochloride], in assay [1] (dose 0.15%), the “% IOP decrease from baseline” value is given as 30%. Also, the EC50 on α2A adrenergic receptor is 2.9 nM.
